Laboratory results as given in patent US20120148633A1, “BINARY AND TERTIARY GALVANIC PARTICULATES AND METHODS OF MANUFACTURING AND USE THEREOF” (priority 2009, published 2012).

How the values were obtained:
[1] = system: oxazolone-induced skin inflammation; experiment: Murine model of contact hypersensitivity (oxazolone ear inflammation), topical; assay type: in vivo, Albino male CD-1 mice; details: 1 mg/ml, 20 μl to left ear 1 hour after oxazolone challenge; ear biopsy weight at 24 hours
[2] = system: acetic acid-induced writhes; experiment: Acetic acid-induced writhing, oral administration; assay type: in vivo, Albino male CD-1 mice; details: 100 mg/kg orally 1 hour prior to i.p. acetic acid
Experimental: In this example, galvanic particulates produced by the process of Example 1 were evaluated for analgesic activity. Aspirin, a non-steroidal analgesic agent, which is known to show efficacy in this model, was included as a reference compound. Albino male CD-1 mice, weighing 24±2 g were used in the study. Galvanic particulates or aspirin were prepared in deionized water (DI Water) and were administered orally at a concentration of 100 mg/kg to mice 1 hour prior to injection of acetic acid. A […] of a 0.5% acetic acid solution was injected intraperitoneally, and the number of acetic acid-induced writhes were counted by an observer blinded to the treatment groups. A 50% decrease in the number of writhes indicated analgesic activity.

Row | SMILES | Percent Inhibition of Skin Inflammation [1] | Analgesic Effectiveness (Percent Reduction Writhes) [2] | Total Number of Writhes (Mean ± Std Dev) ([2]; vehicle 11.4 ± 6.1)
1 | C[C@]12CCC(=O)C=C1CC[C@@H]1[C@@H]2[C@@H](O)C[C@@]2(C)[C@H]1CC[C@]2(O)C(=O)CO [Hydrocortisone] | 70.3% ± 6.6% | – | –
2 | CC(=O)Oc1ccccc1C(=O)O [Aspirin] | – | 56% | 5.0 ± 3.6
